Measurements: patent publication US20080230094A1, “METHOD TO INHIBIT GROWTH OF MICROORGANISMS IN AQUEOUS SYSTEMS AND ON SUBSTRATES USING PERSULFATE AND A BROMIDE” (Buckman Laboratories International, Inc., priority 2007, published 2008)

Test system: Pseudomonas aeruginosa
Experiment: Biocidal efficacy in pulp slurry inoculated with Pseudomonas aeruginosa (plate count, log reduction)
Assay type: cell-based
Details: 1000 ppm as pure compound in pulp slurry; 24 hr incubation
Procedure: A concentrated solution of active biocidal composition was prepared by mixing 44% (w/v) of aqueous ammonium persulfate with 40% (w/v) aqueous sodium bromide in equal volume. The final mixture contains 22% ammonium persulfate and 20% NaBr at pH 2.2. […] Four hours after mixing, the concentrated solution was diluted with water to contain 5% ammonium persulfate. This diluted solution (5%) was then added to 50 ml pulp slurry to give a biocidal concentration of 10 ppm (as ammonium persulfate) in pulp slurry. The pulp slurry was then inoculated with 3×10^6 cells/ml of Pseudomonas aeruginosa, incubated at room temperature for 24 hr, plated in nutrient agar. The colony forming units per milliliter (cfu/ml) was counted and compared with each individual component acting alone.
The pulp slurry contains white bleached dry pulp at 5 g/L; cationic starch at 10 bl/ton dry pulp; CaCO3 at 300 bl/ton dry pulp; ASA size at 3-4 lb/ton dry pulp; retention aids at 0.5-1.0 bl/ton dry pulp; defoamer at 250 g/ton dry pulp. The pulp slurry has a consistency of about 0.5 to 0.7%. The final pH of the pulp substrate after autoclave is about 8.0.

## [Br-].[Na+] [NaBr, sodium bromide]
  CFU/ml: 4.2 × 10^6 CFU/ml
  Log Reduction: 0.00
